# Measurements reported in patent US20180055816A1, “PYRANONAPHTHOQUINONE COMPOUNDS AND METHODS OF USE THEREOF” (University of Kentucky Research Foundation, priority 2016, published 2018).
# Experiments:
# [1] = system: caspase 3; test: Caspase 3 activation / cleaved PARP in HCT116 cells (Western blot); format: cell-based, human; conditions: HCT116, 2 μM, 12 h
# Method: HCT116 cells were treated with 1 μM MK2206 and 100 nM PD0325901 alone and in combination, 100 nM rapamycin, 0.5 μM AZD8055, 2 μM UCF76-A or 2 μM FB for 12 h followed by Western blot analysis for the indicated proteins.
# Cells were lysed in NP-40 lysis buffer (50 mM Tris-HCl, pH 7.5, 150 mM NaCl, 1 mM EDTA, 1% NP-40, 10% glycerol, protease and phosphatase inhibitor cocktail). Western blot analysis were performed using equivalent total protein loadings as described previously. For immunoprecipitation, the cell lysates were incubated with the indicated antibody overnight followed by incubation with a 50% slurry of protein G sepharose beads for 3 h at 4° C. The beads were washed three times with the lysis buffer, and the immunoprecipitated protein complexes were resuspended in 2× Laemmli sample buffer followed by western blot analysis.
# [2] = molecular target: T1, Grx3 (Homo sapiens, UniProt O76003); test: Affinity pull-down / binding to Grx3; conditions: streptavidin pull-down, competition, Western blot
# T1 construct: endogenous in cells; host or cells: HeLa cell lysates; HCT116 cell lysates
# T1 sequence (O76003 1-335): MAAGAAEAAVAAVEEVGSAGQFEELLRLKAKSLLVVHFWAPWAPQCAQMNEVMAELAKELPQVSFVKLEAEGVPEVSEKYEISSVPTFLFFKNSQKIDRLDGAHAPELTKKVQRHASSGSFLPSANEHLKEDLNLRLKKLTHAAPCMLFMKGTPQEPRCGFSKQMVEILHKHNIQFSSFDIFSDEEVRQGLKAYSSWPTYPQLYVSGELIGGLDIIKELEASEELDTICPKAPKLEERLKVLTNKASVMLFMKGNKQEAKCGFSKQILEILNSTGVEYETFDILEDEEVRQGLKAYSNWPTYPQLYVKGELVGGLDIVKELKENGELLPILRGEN
# Method: (§1) The precipitates were resolved by SDS-PAGE, and the gel was stained with Coomassie blue. (C) Sequences illustrating amino acids and peptides of Prx1 and Grx3 identified by mass spectrometry analysis. The unique bands as shown by d7-pull down in the experiment for FIG. 20B were excised and subjected to in-gel tryptic digestion and analysis by MS, wherein the identified amino acids and peptides are shown in red characters. (D) Western blot illustrating that HCT116 cell lysates were incubated with different concentrations of d5 or d7 in the absence or presence of a ten-fold excess of FB for 3 h, followed by pull-down with streptavidin-agarose and Western blot analysis for the indicated proteins.
# (§2) FIGS. 21A-D show images illustrating that the active probe d7 binds to and co-localizes with Prx1 and Grx3. (A) and (B) The recombinant Prx1 (A) or Grx3 (B) was incubated with d7 for 2 hours, followed by streptavidin pull down and Western blot analysis for the indicated proteins. (C) and (D) HCT116 cells were incubated with 25 μM d5, 25 μM d7 or DMSO as control for 5 hours, followed by confocal sections of the cells staining for Prx1 (C) or Grx3 (D) (red), biotin (green) and DAPI (blue). Scale bars, 10 μm.
# (§3) HeLa cell pellets were purchased from National Cell Culture Center (Minneapolis, Minn.) and lysed in 20 ml of the NP-40 lysis buffer. […]
# [3] = molecular target: T2, Prx1 (Homo sapiens, UniProt Q06830); test: Prx1 catalytic activity inhibition; format: biochemical; conditions: recombinant Prx1, 1 hour incubation
# T2 sequence (Q06830 1-199): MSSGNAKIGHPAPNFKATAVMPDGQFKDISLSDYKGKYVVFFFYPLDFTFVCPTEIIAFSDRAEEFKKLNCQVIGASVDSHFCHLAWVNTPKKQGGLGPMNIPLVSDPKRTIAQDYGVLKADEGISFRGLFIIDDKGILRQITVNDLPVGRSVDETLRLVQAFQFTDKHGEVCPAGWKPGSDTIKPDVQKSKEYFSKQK
# Method: The recombinant Prx1 protein was incubated with the indicated concentration of FB, 12, or conoidin A for 1 hour. Data are presented as mean±s.e.m. (n=3 technical replicates per condition). […]. Statistical significance was determined by the Student's t-test.
# Prx1 and Grx3 are antioxidant enzymes known to regulate oxidative stress. Prx1 catalyzes peroxide reduction of H2O2, whereas Grx3 functions as glutathione (GSH)-dependent oxidoreductase by participating in the conversion of reduced GSH to oxidized glutathione disulfide (GSSG). […] While Grx3 biochemical assays are lacking, FB and active analogs could lead to a decrease in GSH levels and an increase in GSSG levels in HCT116 cells (FIGS. 23A-B). As antioxidant enzymes utilize cysteine-containing active sites to reduce various cellular peroxide or disulfide substrates, the role of Prx1/Grx3 cysteines in FB ligand-binding was assessed through replacing their cysteines to alanines. […] Finally, mass spectrometry analysis confirmed the covalent modification of Prx1 and Grx3 by FB at these specific target sites. These cumulative studies provide strong validation of Prx1 and Grx3 as the predominate molecular targets of PNQs in cancer cells.
# [4] = molecular target: T2, Prx1; test: Affinity pull-down / binding to Prx1; set-up: endogenous in cells; host or cells: HeLa cell lysates; HCT116 cell lysates; conditions: streptavidin pull-down, competition, Western blot
# Method: as §1, §2, §3
# [5] = system: cellular GSH; test: Cellular glutathione (GSH) assay in HCT116 cells; format: cell-based, human; conditions: HCT116, 2 μM, 5 h
# Method: Cells were treated with 2 μM of the indicated compounds or DMSO as control for 5 h. After treatment, a total number of 1×10^6 cells were lysed in 100 μl of ice-cold NP-40 lysis buffer for 10 min. The lysate was centrifuged for 10 min and the supernatant was used for glutathione assay using the ApoGSH glutathione detection kit according to the manufacturer's protocol (BioVision Research Products, Mountain view, CA). The total amount of GSH was measured using a fluorescence plate reader at Ex./Em.=380/460 nm.
structure (smiles),measurement,setting,value
"CCCC1OC2CC(=O)OC2C2=C1C(=O)c1c(O)cccc1C2=O (centres unmarked) [FB, frenolicin B]",activation of caspase 3 with induction of cleaved PARP,[1],potent activators
same,binding to Grx3,[2],directly targets
same,inhibition of Prx1 catalytic activity,[3],potently inhibit
same,binding to Prx1,[4],directly targets
same,GSH levels,[5],decrease
